Measured values: patent US10265692B2, “Ex vivo methods for predicting and confirming in vivo metabolism of pharmaceutically active compounds” (Empiriko Corporation, priority 2013, dated 2019)

Tests used:
[1] = Furosemide oxidation by conventional method with octabromo tetrakis(2,6-dichlorophenyl)porphyrin Fe(III)Cl and hydrogen peroxide, with or without imidazole co-catalyst, metabolites by LC/MS-ESI; assay type: in vitro ADME; conditions: DMSO, H2O2, 24 hours; for furosemide metabolites produced, Imidazole Co-Catalyst: with imidazole co-catalyst; for furosemide metabolites produced, No Co-Catalyst: control without imidazole
Description: Furosemide API (12.5 mg, 0.0378 mmol) in DMSO (0.1 M) was added to octabromo tetrakis(2,6-dichlorophenyl)porphyrin Fe(III)Cl (0.6 mg, 0.000378 mmol), followed by imidazole (0.13 mg, 0.00189 mmol). Over a 1 hour period, 50% w/w hydrogen peroxide (6.44 uL, […]) was added dropwise. An additional amount of hydrogen peroxide was added after 2 hours. The reaction was monitored by LC and stopped after 24 hours.
A control reaction was run under the exact parameters as stated above, without the addition of imidazole as a co-catalyst.
Samples analyzed according to parameters in Example 1.

[2] = Ex vivo prediction of drug-to-drug interaction: microwave oxidation of drug mixtures with Octabromo tetrakis(2,6-dichlorophenyl)porphyrin Fe(III)Cl and sodium hypochlorite, metabolites by LC/MS; conditions: saxagliptin reacted in mixture with Metformin, porphyrin Fe(III)Cl catalyst, NaOCl
Description: Metformin and Saxagliptin Mixture Microwave Protocol: Metformin Hydrochloride (8.19 mg, 0.06341 mmol) in 1:0.25 mL acetonitrile:water was reacted with potassium carbonate (10.96 mg, 0.07926) and stirred at 40° C. for 30 minutes in a microwave tube. Saxagliptin API (20.0 mg, 0.06341 mmol) extracted using 40 mL 1:1 methanol:ethanol, filtered and concentrated in vacuo. The resulting solid taken up in 2:0.25 mL acetonitrile:water and transferred to microwave tube. Octabromo tetrakis(2,6-dichlorophenyl)porphyrin Fe(III)Cl (10.21 mg, 0.006341 mmol) then added, followed by sodium hypochlorite (156.6 uL, 0.3171 mmol). Reaction run in the microwave at 80° C. for 30 minutes (CC-03-149A).

Row | Compound | furosemide metabolites produced, Imidazole Co-Catalyst [1] | Presence of Saxagliptin metabolites [2] | furosemide metabolites produced, No Co-Catalyst [1]
1 | NS(=O)(=O)c1cc2c(cc1Cl)[N+]1(O)CC(=O)C(O)C(=O)C1OC2=O (stereo not shown) [FUR4] | Present |  | 
2 | N#C[C@@H]1C[C@@H]2C[C@@H]2N1C(=O)C(N)C12CC3CC(O)(CC(O)(C3)C1)C2 (stereo partly shown) [Hydroxy-Saxagliptin] |  | Not Detected | 
3 | NS(=O)(=O)c1cc(C(=O)O)c(NCC(=O)CCC(=O)O)cc1Cl [FUR6] | Present |  | 
4 | Nc1cc(Cl)c(S(N)(=O)=O)cc1C(=O)O [FUR3] | Present |  | Present
5 | NS(=O)(=O)c1cc2c(cc1Cl)N1CC(=O)C=CC1OC2=O (stereo not shown) [FUR1] | Present |  | Present
6 | NS(=O)(=O)c1cc2c(cc1Cl)[N+]1([O-])CC(=O)C=CC1OC2=O (stereo not shown) [FUR5] | Present |  | 
7 | NS(=O)(=O)c1cc(C(=O)[O-])c(-[n+]2cccc(O)c2)cc1Cl [FUR2] | Present |  | Present
